From patent publication US6048862A, “Benzylamidine derivatives with serotonin receptor binding activity” (Virginia Commonwealth University, priority 1999, dated 2000)
Where a name gives a salt, the structure may show the parent alone. Read-outs that look alike come from different tables or passages of the source.

Experiments:
[1] = target: 5-HT1Dβ (Homo sapiens, UniProt P28222); test: Binding affinity, 3H-serotonin displacement, membranes of recombinant cells expressing 5-HT1Dβ
Protocol: (§1) Compounds of the previous examples, as well as reference compounds were evaluated for binding affinity using cell types receptive specifically to 5-HT1Dα and 5-HT1Dβ ligands. The assay protocol generally entailed the incubation of membranes prepared from cells expressing the 5-HT1Dα or 5-HT1Dβ subtype of 5-HT receptors with ^3 H-serotonin. Increasing concentrations of the test compound were incubated with the radioligand and the membrane homogenates prepared from the recombinant cells. After a 60 minute incubation at 22° C., the incubation was terminated by vacuum filtration. The filters were washed with buffer and counted for radioactivity using liquid scintillation spectroscopy. The affinity of the test compound for the 5-HT1Dα or 5-HT1Dβ receptor was determined by computer-assisted analysis of the data and by determining the amount of compound necessary to inhibit 50% of the binding of the radioligand to the receptor. Concentrations ranging from 10^-11 M to 10^- 5 M of the test compound were evaluated.

[2] = target: T1, 5-HT1D receptor (Oryctolagus cuniculus, UniProt P49144); test: 5-HT1D receptor agonist assay: contraction of isolated rabbit saphenous vein; assay type: cell-based
T1 construct: Ring segments of the vein (4-5 mm in length) were cut and the endothelium gently removed; from tissue; host or cells: saphenous vein rings, endothelium removed, male New Zealand White rabbit
Protocol: The saphenous veins from both the left and right side were cleaned of fat and connective tissue and placed in Krebs solution (118 mM NaCl, 11 mM glucose, 25 mM NaHCO3, 4.7 mM KCl, 2.5 mM CaCl2. 2H2 O, 1.2 mM KH2 PO4, and 1.2 mM MgSO4. 7H2 O. Ring segments of the vein (4-5 mm in length) were cut and the endothelium gently removed. The segments were mounted in 10 mL baths containing Krebs buffer and were constantly aerated with 95% oxygen/5% carbon dioxide and maintained at 37° C. and pH 7.4 in order to record the isometric tension. A resting tension of 2.5 g was applied and the tissues allowed to equilibrate for 90 minutes, with washing every 15-20 minutes. After the equilibrium period, the rings were depolarized by the addition of two aliquots of KCl (80 mM final concentration) separated by a 20 minute washing period. The tissues were then exposed to prazosin, idazoxan and indomethacin (all 1 μM final concentration) for 30 minutes in order to exclude the actions of α1 - and α2 -adrenergic receptors and prostaglandin receptors respectively. […] Responses were calculated as a percentage of the maximal contraction evoked by 80 mM KCl. Only one compound was tested per preparation.
EC50 represents the concentration of the compound which causes 50% of the maximum contraction effected by it. If the compound included a maximum contraction of less than 60% of that of KCl (80 mM), it was considered a partial agonist.

[3] = target: 5-HT1Dα (Homo sapiens, UniProt P28221); test: biochemical; assay type: binding; details: for 5-HT1Dβ / 5-HT1Dα: ratio of Ki values, selectivity for 5-HT1Dα over 5-HT1Dβ
Protocol: as §1

[4] = 3H-serotonin radioligand, 60 minute incubation at 22° C., read-out: 5-HT1Dβ Kl
[5] = 3H-serotonin radioligand, 60 minute incubation at 22° C., read-out: 5-HT1Dα Kl
[6] = rabbit isolated saphenous vein, prazosin, idazoxan and indomethacin (1 μM) present, 50% of the compound's own maximum contraction, 37° C., pH 7.4, read-out: EC50

5-HT1Dα, sequence (P28221 whole entry): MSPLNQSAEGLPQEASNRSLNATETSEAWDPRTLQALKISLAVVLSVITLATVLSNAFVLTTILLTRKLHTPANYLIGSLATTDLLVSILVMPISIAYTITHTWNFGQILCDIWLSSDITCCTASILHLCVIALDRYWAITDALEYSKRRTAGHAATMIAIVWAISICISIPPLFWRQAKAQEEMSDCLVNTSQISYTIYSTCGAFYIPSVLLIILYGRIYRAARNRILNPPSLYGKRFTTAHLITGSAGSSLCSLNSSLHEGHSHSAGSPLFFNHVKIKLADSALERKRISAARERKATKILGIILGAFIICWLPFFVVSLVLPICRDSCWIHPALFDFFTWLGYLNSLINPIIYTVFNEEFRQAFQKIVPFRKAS
5-HT1Dβ, sequence (P28222 whole entry): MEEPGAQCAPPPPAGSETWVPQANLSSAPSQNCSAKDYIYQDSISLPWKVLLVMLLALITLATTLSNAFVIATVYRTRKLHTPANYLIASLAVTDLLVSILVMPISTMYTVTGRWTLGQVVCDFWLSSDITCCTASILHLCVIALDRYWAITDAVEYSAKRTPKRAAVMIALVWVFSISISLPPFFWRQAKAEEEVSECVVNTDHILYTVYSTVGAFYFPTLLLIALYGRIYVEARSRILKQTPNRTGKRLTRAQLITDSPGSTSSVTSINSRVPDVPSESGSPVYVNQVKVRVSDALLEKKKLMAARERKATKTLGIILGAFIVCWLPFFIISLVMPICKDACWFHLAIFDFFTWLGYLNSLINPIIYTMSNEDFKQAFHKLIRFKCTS
T1 sequence (P49144 whole entry): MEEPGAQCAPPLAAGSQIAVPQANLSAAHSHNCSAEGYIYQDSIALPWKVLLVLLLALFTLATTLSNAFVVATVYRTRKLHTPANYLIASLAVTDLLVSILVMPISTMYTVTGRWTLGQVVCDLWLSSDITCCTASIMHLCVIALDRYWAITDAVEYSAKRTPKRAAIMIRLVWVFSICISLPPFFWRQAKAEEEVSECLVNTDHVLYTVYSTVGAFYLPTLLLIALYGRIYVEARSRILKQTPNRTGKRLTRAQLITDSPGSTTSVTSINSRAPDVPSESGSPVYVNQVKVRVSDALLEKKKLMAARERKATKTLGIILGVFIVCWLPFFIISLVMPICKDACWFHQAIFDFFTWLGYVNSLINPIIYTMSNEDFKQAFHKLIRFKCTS

| SMILES | Ki [1, 4] | Ki [3, 5] | 5-HT1Dβ / 5-HT1Dα [3] | further results |
| --- | --- | --- | --- | --- |
| Cc1cc(C(C)(C)C)c(O)c(C)c1CC1=NCCN1 [oxymetazoline, reference compound] | 0.33 nM | – | – | – |
| Cc1cc(C)c(CC2=NCCN2)c(C)c1 [drawing 23] | – | – | – | EC50 [2]: 100 nM |
| Cc1cc(C(C)(C)C)cc(C)c1CC1=NCCN1 [Example 5c, 2-[(4-t-Butyl-2,6-dimethylphenyl)methyl]-4,5-dihydro-1H-imidazole hydrochloride] | – | – | – | Ki [1]: 14.9 nM |
| CC(C)(C)c1ccc(CC2=NCCN2)cc1 [Example 5b, 2-[(4-t-Butyphenyl)methyl]-4,5-dihydro-1H-imidazole hydrochloride] | > 10000 nM | 105 nM | > 95 | – |
| CC(C)c1ccc(CC2=NCCN2)cc1.Cl [Example 5a, 4,5-Dihydro-2-[(4-isopropylphenyl)methyl]-1H-imidazole Hydrochloride] | 2780 nM | 340 nM | 8 | – |
| Cc1cc(C(C)(C)C)cc(C)c1CC(=N)N [drawing 24] | – | – | – | EC50 [2, 6]: 23 nM |
| Cc1cc(C(C)C)cc(C)c1CC1=NCCN1.Cl [Example 5f, 4,5-Dihydro-2-[(2,6-dimethyl-4-isopropylphenyl)methyl]-1H-imidazole hydrochloride] | 37 nM | – | 23 | Ki [3]: 1.6 nM |
| Cc1cc(C(C)(C)C)ccc1CC1=NCCN1.Cl [Example 5k, 2-[(4-t-Butyl-2-methylphenyl)methyl]-4,5-dihydro-1H-imidazole hydrochloride] | 712 nM | 6.8 nM | 105 | – |
| Cc1cc(C)c(CC2=NCCN2)c(C)c1.Cl [Example 5e, 4,5-Dihydro-2-[(2,4,6-trimethylphenyl)methyl]-1H-imidazole hydrochloride] | 3480 nM | – | 20 | Ki [3]: 92 nM |
| Cc1cc(C(C)(C)C)cc(C)c1CC1=NCCCN1.Cl [Example 5j, 2-(4-t-Butyl-2,6-dimethylbenzyl)-1,4,5,6-tetrahydropyrimidine hydrochloride] | > 5000 nM | 35 nM | > 143 | – |
| CC(C)(C)c1ccc(CC2=NCCN2)cc1 [drawing 22] | – | – | – | EC50 [2, 6]: 2900 nM |
| Cl.c1ccc2cc(CC3=NCCN3)ccc2c1 [Example 5g, 4,5-Dihydro-2-(2-naphthalenylmethyl)-1H-imidazole hydrochloride] | – | – | 9 | Ki [1]: 1160 nM; Ki [3]: 135 nM |
| Cc1cc(Br)cc(C)c1CC1=NCCN1.Cl [Example 5d, 2-[(4-Bromo-2,6-dimethylphenyl)methyl]-4,5-dihydro-1H-imidazole hydrochloride] | 1570 nM | 74 nM | 21 | – |
| Cc1cc(C(C)(C)C)cc(C)c1CC1=NCCN1Cc1ccccc1.Cl [Example 5i, 2-[(4-t-Butyl-2,6-dimethylphenyl)methyl]-1-benzyl-4,5-dihydroimidazole hydrochloride] | 1860 nM | 30 nM | 62 | – |
| Cc1cc(C(C)(C)C)cc(C)c1CC(=N)N [Example 6, 4-t-Butyl-2,6-dimethylbenzeneethanimidamide] | 600 nM | 13 nM | 46 | – |
